This is an account of results in patent publication US8859727B2, “Bioactive FUS1 peptides and nanoparticle-polypeptide complexes” (Board of Regents, The University of Texas System, priority 2005, dated 2014).

“Also recorded” adds a separate entry of the source. Where a name gives a salt, the structure may show the parent alone. Read-outs that look alike come from different tables or passages of the source. Where a SMILES comes first, the peptide text is derived from it. Where no end group is shown, it is not given here. The star is where a group is joined. Stearoyl = CCCCCCCCCCCCCCCCCC(=O)*

A short description of series [1]: Toxicity Study of FP-nanoparticle in C3H mice (hematological parameters, hepatic and renal function). In kind it is in vivo. The following applies: tail vein three times every other day. The method, then: C3H mice were injected with a nanoparticle containing a peptide (either the FUS-1 peptide or a nonspecific peptide), and various toxicological parameters were subsequently analyzed at 1, 2 and 3 weeks after injection. Control mice (“Group IX”) were injected with PBS. The toxicological parameters evaluated included hematological parameters (i.e., red blood cell counts “RBC” and white blood cell counts “WBC”), analysis of hepatic function (i.e., AST, ALT, and total bilirubin analysis) and analysis of renal function (i.e., evaluation of creatinine levels). Either DOTAP:cholesterol nanoparticles or DOPC (neutral liposome) nanoparticles were used. The amount of peptide-containing nanoparticle administered to the C3H mice varied from 2 mg/kg to 5 mg/kg. These studies are summarized below in Table V.

Series [2] has as its system H1299 cells. Briefly: Soft agar colony assay. It is filed as cell-based, human.
Series [3] has as its system normal bronchial epithelial CCD16 cells. The experiment in a line: Cell growth / cytotoxicity in normal cells, XTT assay. In kind it is cell-based, human. The following applies: at the IC80 doses to all other NSCLC cells.
The target of series [4] is T1, c-Abl tyrosine kinase (Abelson murine leukemia virus, UniProt P00521).
T1 construct: truncated commercial (New England Bio-Labs) cAbl tyrosine kinase (45 kD) containing only the SH2 and SH1 domains; purchased New England Bio-Labs; host or cells: bacteria
T1 sequence (P00521 1-398): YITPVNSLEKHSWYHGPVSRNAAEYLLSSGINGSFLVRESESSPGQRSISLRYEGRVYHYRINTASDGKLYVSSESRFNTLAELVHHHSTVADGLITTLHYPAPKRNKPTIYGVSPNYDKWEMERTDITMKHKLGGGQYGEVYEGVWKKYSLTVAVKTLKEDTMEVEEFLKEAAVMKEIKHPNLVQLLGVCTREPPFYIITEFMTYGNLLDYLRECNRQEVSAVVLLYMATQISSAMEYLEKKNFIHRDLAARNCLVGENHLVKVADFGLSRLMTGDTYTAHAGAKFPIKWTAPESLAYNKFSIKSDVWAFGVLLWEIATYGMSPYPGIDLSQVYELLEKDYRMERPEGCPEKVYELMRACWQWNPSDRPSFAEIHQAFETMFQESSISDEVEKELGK
It is filed as biochemical. The settings on record: for inhibition of Abl tyrosine kinase: commercial / bacterially purified Abl kinase, GST-Crk substrate. How it is done: A zero peptide control, a DMSO control, a DMSO plus stearic acid control, and 20, 25, 30, 35, 40, 45, 50 and 55:M of peptide were evaluated.
After 30 minutes of incubation at 30 degrees, samples were boiled with 2×SDS sample buffer and run on an 8% SDS PAGE gel. The gel was dried and exposed to a phosphoimager.
GST-Crk phosphorylation was quantified by using a phosphoimager.

Series [5] concerns Rat-1 cells transformed with an activated c-Abl tyrosine kinase. Briefly: Foci formation in Rat-1 cells transformed by c-Abl. In kind it is cell-based.
From the text: Rat-1 SH2 cells express GFP as a marker. A fluorescent photo was taken of green fluorescing Rat-1 SH2 cells treated with peptide. A phase contrast photo of the field was produced. […] (Rat-1 SH2+M74) and (Rat-1 SH2+ stearic acid) were imaged.
Where [6] appears, read: 2 mg/kg, 1st week after last treatment.
The mark [7] stands for this setting: 2 mg/kg, 2nd week after last treatment.
Where [8] appears, read: 2 mg/kg, 3rd week after last treatment.
Setting [9] is: 5 mg/kg, 1st week after last treatment.
[10] abbreviates: 5 mg/kg, 2nd week after last treatment.
Setting [11] is: 5 mg/kg, 3rd week after last treatment.
Where [12] appears, read: Rat-1 cells transformed with activated c-Abl.

Take `CCCCCCCCCCCCCCCCCC(=O)N[C@@H](CC(=O)O)C(=O)N[C@@H](CC(C)C)C(=O)N[C@H](C(=O)N[C@@H](CCC(=O)O)C(=O)N[C@@H](CCC(=O)O)C(=O)N[C@@H](C)C(=O)N[C@@H](C)C(=O)N[C@@H](CO)C(=O)N[C@@H](CCCNC(=N)N)C(=O)N1CCC[C@H]1C(=O)N[C@H](C(=O)N[C@@H](CC(=O)O)C(=O)N[C@@H](C)C(=O)N[C@H](C(=O)N1CCC[C@H]1C(=O)N[C@@H](CCC(=O)O)C(=O)N[C@@H](CCC(N)=O)C(=O)N[C@H](C(=O)N[C@@H](CCCCN)C(=O)N[C@@H](C)C(=O)N[C@@H](C)C(=O)NCC(=O)N[C@@H](C)C(=O)N[C@@H](Cc1ccc(O)cc1)C(=O)O)C(C)C)C(C)C)C(C)C)[C@@H](C)CC` [NSP] (Stearoyl-DLIEEAASRPVDAVPEQVKAAGAY-OH): the ALT is reported as 76 ± 7.87 U/L in series [1] (setting [6]); 61.67 ± 5.44 U/L in series [1] (setting [7]); 58.67 ± 12.55 U/L in series [1] (setting [8]); 91.5 ± 7.5 U/L in series [1] (setting [9]); 54 ± 9.93 U/L in series [1] (setting [10]); 50 ± 6.16 U/L in series [1] (setting [11]). In addition, the AST amounted to 183 ± 6 U/L in series [1] (setting [6]); 146 ± 45.31 U/L in series [1] (setting [7]); 94.67 ± 28.59 U/L in series [1] (setting [8]); 148.5 ± 13.5 U/L in series [1] (setting [9]); 96.33 ± 20.24 U/L in series [1] (setting [10]); 83.67 ± 23.63 U/L in series [1] (setting [11]). In addition, the Creatinine in series [1] (setting [6]) turned out to be 0.6 ± 0 mg/dL; in series [1] (setting [7]), 0.5 ± 0.10 mg/dL; in series [1] (setting [8]) it was 0.38 ± 0.09 mg/dL; in series [1] (setting [9]) it was 0.317 ± 0.02 mg/dL; in series [1] (setting [10]), 0.35 ± 0.02 mg/dL; in series [1] (setting [11]) it was 0.32 ± 0.04 mg/dL. In addition, the “Total Bilirubin” value is 2.7 ± 0 mg/dL in series [1] (setting [6]); 1.13 ± 1.09 mg/dL in series [1] (setting [7]); 0.6 ± 0.42 mg/dL in series [1] (setting [8]); 1.8 ± 1.2 mg/dL in series [1] (setting [9]); 0.7 ± 0.28 mg/dL in series [1] (setting [10]); 0.43 ± 0.12 mg/dL in series [1] (setting [11]). The RBC is 6.23 ± 0.33 ×10^9 in series [1] (setting [7]), 5.7 ± 1.14 ×10^9 in series [1] (setting [8]), 7.47 ± 2.28 ×10^9 in series [1] (setting [10]) and 6.67 ± 0.69 ×10^9 in series [1] (setting [11]). Besides, the WBC is 1.93 ± 0.58 ×10^9 in series [1] (setting [7]), 1.93 ± 0.45 ×10^9 in series [1] (setting [8]), 1.6 ± 0.24 ×10^9 in series [1] (setting [10]) and 1.6 ± 0.14 ×10^9 in series [1] (setting [11]).

Regarding `Cc1ccc(NC(=O)c2ccc(CN3CCN(C)CC3)cc2)cc1Nc1nccc(-c2cccnc2)n1` [imatinib, imatinib mesylate], the colony-forming ability entry in series [2] (1-10 uM, dose-dependent, number and size of colonies) was “strongly inhibited”. Also, the size of colonies result in series [2] (10:M, compared to untreated cells) is given as “reduced in size”. For the same molecule, in series [2] (10:M, compared to untreated control), the number of colonies result is reported as “almost complete reduction in the number of colonies”.

Regarding `CCCCCCCCCCCCCCCCCC(=O)N[C@@H](CCCCN)C(=O)N[C@@H](CC(C)C)C(=O)N[C@@H](CCCNC(=N)N)C(=O)N[C@@H](CCCNC(=N)N)C(=O)N[C@H](C(=O)N[C@@H](Cc1c[nH]cn1)C(=O)N[C@@H](CCCCN)C(=O)N[C@@H](CC(N)=O)C(=O)N[C@@H](CC(C)C)C(=O)N[C@H](C(=O)N1CCC[C@H]1C(=O)N[C@@H](CCC(N)=O)C(=O)NCC(=O)N[C@H](C(=O)N[C@H](C(=O)N[C@@H](CCCCN)C(=O)N[C@@H](CC(C)C)C(=O)N[C@@H](CC(=O)O)C(=O)N[C@@H](Cc1c[nH]cn1)C(=O)N1CCC[C@H]1C(=O)N[C@@H](CCCNC(=N)N)C(=O)O)C(C)C)[C@@H](C)CC)[C@@H](C)CC)C(C)C` [st-wt-FP] (Stearoyl-KLRRVHKNLIPQGIVKLDHPR-OH), the “cytotoxicity in normal cells” value in series [3] is recorded as “No significant cytotoxicity”.

`CCCCCCCCCCCCCCCCCC(=O)O` [stearic acid]: the “inhibition of Abl tyrosine kinase” value is “no inhibitory effects; also recorded: not inhibitory” in series [4] and “not inhibitory” in series [4] (listed as Stearate). The foci formation entry in series [5] (30:M, Rat-1 SH2 cells) is reported as “no effect”; in series [5] (setting [12]), “no effects”.

Consider “Non-stearate FUS1 peptide: Fus1 peptide sequence without the stearic acid moiety (KLRRVHKNLIPQGIVKLDHR)”, for which the “inhibition of Abl tyrosine kinase activity” value in series [4] (0-60 uM, 45 kD Abl tyrosine kinase, GST-Crk phosphorylation) was “did not inhibit”. Also, the “inhibition of Abl tyrosine kinase” value in series [4] is “did not inhibit”; in series [4] (listed as Fus1 peptide lacking the stearate N-terminal moiety), “inactive”.

Take “Stearic acid-KLRRVHKNLIPQGIVKLDHR (Stearoyl-KLRRVHKNLIPQGIVKLDHR) [stearate-Fus1 peptide]”: the “inhibition of Abl tyrosine kinase” value in series [4] was “strongly inhibitory”. Also, the foci formation result in series [5] (40 μM) and in series [5] (setting [12]) was “blocked foci formation” each time.
